In US8030498B2, “Benzoylpyrazole compounds and herbicides containing them” (Ishihara Sangyo Kaisha, Ltd., priority 2005, dated 2011):

Key:
[1] = test system: barnyardgrass (Echinochloa crus-galli L.); assay: Test Example 1: foliar treatment, growth inhibition rate, barnyardgrass; format: in vivo; conditions: 31 g/ha active ingredient, visually observed 17th to 23rd day after application; for pest or weed control at 31 g/ha: Echinochloa crus-galli
How it was run: (§1)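 Visual scoring of growth inhibition, 0% (untreated) to 100% (complete kill), on days 17–23 following post-emergence spray of formulated compound in water (500 L/ha, 0.1 vol % spreader); plants treated at set leaf stages, e.g. corn 2.0–3.5, wheat 1.7–3.4.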

[2] = test system: crabgrass (Digitaria sanguinalis L.); assay: Test Example 1: foliar treatment, growth inhibition rate, crabgrass; format: in vivo; conditions: 31 g/ha active ingredient, visually observed 17th to 23rd day after application; for pest or weed control at 31 g/ha: Digitaria sanguinalis
How it was run: as §1

[3] = test system: greenfoxtail (Setaria viridis L.); assay: Test Example 1: foliar treatment, growth inhibition rate, greenfoxtail; format: in vivo; conditions: 31 g/ha active ingredient, visually observed 17th to 23rd day after application; for pest or weed control at 31 g/ha: Setaria viridis
How it was run: (§2)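 Seeds were sown in upland field soil in pots. At the target leaf stage (corn 2.0–3.5; greenfoxtail 1.0–3.0; rice 1.0–2.5; wheat 1.7–3.4), the formulated compound, diluted at a water volume of 500 L/ha with 0.1 vol % spreader, was applied by small sprayer. Plants were rated by eye on days 17–23.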

[4] = test system: redroot pigweed (Amaranthus retroflexus L.); assay: Test Example 1: foliar treatment, growth inhibition rate, redroot pigweed; format: in vivo; conditions: 31 g/ha active ingredient, visually observed 17th to 23rd day after application
How it was run: as §1

[5] = test system: prickly sida (Sida spinosa L.); assay: Test Example 1: foliar treatment, growth inhibition rate, prickly sida; format: in vivo; conditions: 31 g/ha active ingredient, visually observed 17th to 23rd day after application
How it was run: as §1

[6] = test system: velvetleaf (Abutilon theophrasti MEDIC.); assay: Test Example 1: foliar treatment, growth inhibition rate, velvetleaf; format: in vivo; conditions: 31 g/ha active ingredient, visually observed 17th to 23rd day after application; for pest or weed control at 31 g/ha: Abutilon theophrasti
How it was run: as §1

rice (Oryza sativa L.) = assay: Test Example 1: foliar treatment, growth inhibition rate, rice; format: in vivo; conditions: 31 g/ha active ingredient, visually observed 17th to 23rd day after application; for pest or weed control at 31 g/ha: Oryza sativa
How it was run: as §2

wheat (Triticum spp.) = assay: Test Example 1: foliar treatment, growth inhibition rate, wheat; format: in vivo; conditions: 31 g/ha active ingredient, visually observed 17th to 23rd day after application; for pest or weed control at 31 g/ha: Triticum
How it was run: as §2

corn (Zea mays L.) = assay: Test Example 1: foliar treatment, growth inhibition rate, corn; format: in vivo; conditions: 31 g/ha active ingredient, visually observed 17th to 23rd day after application; for pest or weed control at 31 g/ha: Zea mays
How it was run: as §2

barnyardgrass = assay: Test Example 2: soil application on the day after sowing, growth inhibition rate, barnyardgrass; format: in vivo, Echinochloa crus-galli L.; conditions: 250 g/ha active ingredient, observed on 19th to 24th day; for inhibition at 250 g/ha: Echinochloa crus-galli
How it was run: (§3)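 Pre-emergence soil treatment: one day post-sowing in upland soil, compound formulations at set active-ingredient rates were applied in 500 L/ha water. Visual rating of growth inhibition (0% untreated-equivalent to 100% complete kill) followed on days 19–24 after application.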

crabgrass = assay: Test Example 2: soil application on the day after sowing, growth inhibition rate, crabgrass; format: in vivo, Digitaria sanguinalis L.; conditions: 250 g/ha active ingredient, observed on 19th to 24th day; for inhibition at 250 g/ha: Digitaria sanguinalis
How it was run: as §3

greenfoxtail = assay: Test Example 2: soil application on the day after sowing, growth inhibition rate, greenfoxtail; format: in vivo, Setaria viridis L.; conditions: 250 g/ha active ingredient, observed on 19th to 24th day; for inhibition at 250 g/ha: Setaria viridis
How it was run: as §3

redroot pigweed = assay: Test Example 2: soil application on the day after sowing, growth inhibition rate, redroot pigweed; format: in vivo, Amaranthus retroflexus L.; conditions: 250 g/ha active ingredient, observed on 19th to 24th day; for inhibition at 250 g/ha: Amaranthus retroflexus
How it was run: as §3

prickly sida = assay: Test Example 2: soil application on the day after sowing, growth inhibition rate, prickly sida; format: in vivo, Sida spinosa L.; conditions: 250 g/ha active ingredient, observed on 19th to 24th day; for inhibition at 250 g/ha: Sida spinosa
How it was run: as §3

velvetleaf = assay: Test Example 2: soil application on the day after sowing, growth inhibition rate, velvetleaf; format: in vivo, Abutilon theophrasti MEDIC.; conditions: 250 g/ha active ingredient, observed on 19th to 24th day; for inhibition at 250 g/ha: Abutilon theophrasti
How it was run: as §3

rice = assay: Test Example 2: soil application on the day after sowing, growth inhibition rate, rice; format: in vivo, Oryza sativa L.; conditions: 250 g/ha active ingredient, observed on 19th to 24th day; for inhibition at 250 g/ha: Oryza sativa
How it was run: as §3

wheat = assay: Test Example 2: soil application on the day after sowing, growth inhibition rate, wheat; format: in vivo, Triticum spp.; conditions: 250 g/ha active ingredient, observed on 19th to 24th day; for inhibition at 250 g/ha: Triticum aestivum
Source text: Upland field soil was put into a 1/170,000 hectare pot, and seeds of various plants (barnyardgrass, crabgrass, greenfoxtail, redroot pigweed, prickly sida, velvetleaf, rice, wheat, corn and soybean) were sown. On the day after sowing, wettable powders or emulsifiable concentrates of the compounds of the present invention prepared in accordance with a conventional preparation method, were weighed so that the active ingredients became the prescribed amounts, and diluted with water in an amount corresponding to 500 liter per 1 hectare, followed by soil application with a small sprayer. On the 19th to 24th day after the application, the state of growth of the respective plants was visually observed, and the herbicidal effect was evaluated in accordance with a growth inhibition rate (%) of from 0 (equivalent to the non-treated area) to 100% (complete kill).

corn = assay: Test Example 2: soil application on the day after sowing, growth inhibition rate, corn; format: in vivo, Zea mays L.; conditions: 250 g/ha active ingredient, observed on 19th to 24th day; for inhibition at 250 g/ha: Zea mays
How it was run: as §3

soybean = assay: Test Example 2: soil application on the day after sowing, growth inhibition rate, soybean; format: in vivo, Glycine max Merr.; conditions: 250 g/ha active ingredient, observed on 19th to 24th day; for inhibition at 250 g/ha: Glycine max
How it was run: as §3

[7] = test system: soybean (Glycine max Merr.); assay: Test Example 1: foliar treatment, growth inhibition rate, soybean; format: in vivo; conditions: 31 g/ha active ingredient, visually observed 17th to 23rd day after application
How it was run: as §1

Compound | Growth inhibition rate (%) redroot pigweed [4] [%] | Growth inhibition rate (%) Prickly sida [5] [%] | Growth inhibition rate (%) Barnyardgrass [1] [%] | Growth inhibition rate (%) Crabgrass [2] [%] | Growth inhibition rate (%) Greenfoxtail [3] [%] | Growth inhibition rate (%) Velvetleaf [6] [%] | Growth inhibition rate (%) Rice (rice (Oryza sativa L.)) [%] | Growth inhibition rate (%) Wheat (wheat (Triticum spp.)) [%] | Growth inhibition rate (%) Corn (corn (Zea mays L.)) [%] | Growth inhibition rate (%) Soybean [7] [%] | Growth inhibition rate (%) Barnyardgrass (barnyardgrass) [%] | Growth inhibition rate (%) Crabgrass (crabgrass) [%] | Growth inhibition rate (%) Greenfoxtail (greenfoxtail) [%] | Growth inhibition rate (%) redroot pigweed (redroot pigweed) [%] | Growth inhibition rate (%) Prickly sida (prickly sida) [%] | Growth inhibition rate (%) Velvetleaf (velvetleaf) [%] | Growth inhibition rate (%) Rice (rice) [%] | Growth inhibition rate (%) Wheat (wheat) [%] | Growth inhibition rate (%) Corn (corn) [%] | Growth inhibition rate (%) Soybean (soybean) [%] | also measured
CCSC(=O)Oc1c(C(=O)c2ccc(S(C)(=O)=O)c(C(=O)OC)c2C)cnn1C [Compound No. 1, 5-(ethylthio)carbonyloxy-1-methylpyrazol-4-yl 3-(methoxycarbonyl)-2-methyl-4-(methylsulfonyl)phenyl ketone] | 100 | 70 | – | – | – | – | – | – | – | – | – | – | – | – | – | – | – | – | – | – | pest or weed control at 31 g/ha [1]: 90%; pest or weed control at 31 g/ha [2]: 80%; pest or weed control at 31 g/ha [3]: 100%; pest or weed control at 31 g/ha [6]: 100%; pest or weed control at 31 g/ha (rice (Oryza sativa L.)): 80%; pest or weed control at 31 g/ha (wheat (Triticum spp.)): 0%; pest or weed control at 31 g/ha (corn (Zea mays L.)): 10%; inhibition at 250 g/ha (barnyardgrass): 100%; inhibition at 250 g/ha (crabgrass): 100%; inhibition at 250 g/ha (greenfoxtail): 100%; inhibition at 250 g/ha (redroot pigweed): 100%; inhibition at 250 g/ha (prickly sida): 60%; inhibition at 250 g/ha (velvetleaf): 60%; inhibition at 250 g/ha (rice): 95%; inhibition at 250 g/ha (wheat): 10%; inhibition at 250 g/ha (corn): 0%; inhibition at 250 g/ha (soybean): 75%
COC(=O)c1c(S(C)(=O)=O)ccc(C(=O)c2cnn(C)c2OC(=O)SC)c1C [Compound No. 3] | 90 | 90 | 95 | 95 | 100 | 95 | 100 | 50 | 60 | 95 | 60 | 100 | 60 | 100 | 95 | 70 | 95 | 0 | 0 | 40 | –
CCSC(=O)Oc1c(C(=O)c2ccc(S(C)(=O)=O)c(OC)c2C)cnn1C [Compound No. 35, 5-(ethylthio)carbonyloxy-1-methylpyrazol-4-yl 3-(methoxy)-2-methyl-4-(methylsulfonyl)phenyl ketone] | 90 | 40 | – | – | – | – | – | – | – | 90 | – | – | – | – | – | – | – | – | – | – | pest or weed control at 31 g/ha [1]: 90%; pest or weed control at 31 g/ha [2]: 80%; pest or weed control at 31 g/ha [3]: 100%; pest or weed control at 31 g/ha [6]: 80%; pest or weed control at 31 g/ha (rice (Oryza sativa L.)): 80%; pest or weed control at 31 g/ha (wheat (Triticum spp.)): 0%; pest or weed control at 31 g/ha (corn (Zea mays L.)): 0%; inhibition at 250 g/ha (barnyardgrass): 90%; inhibition at 250 g/ha (crabgrass): 100%; inhibition at 250 g/ha (greenfoxtail): 70%; inhibition at 250 g/ha (redroot pigweed): 95%; inhibition at 250 g/ha (prickly sida): 90%; inhibition at 250 g/ha (velvetleaf): 20%; inhibition at 250 g/ha (rice): 90%; inhibition at 250 g/ha (wheat): 0%; inhibition at 250 g/ha (corn): 0%; inhibition at 250 g/ha (soybean): 0%
CCOc1c(S(C)(=O)=O)ccc(C(=O)c2cnn(C)c2OC(=O)SCC)c1C [compound 36] | 100 | 100 | 100 | 98 | 100 | 100 | 70 | 50 | 10 | – | 100 | 100 | 100 | 100 | 60 | 50 | 80 | 0 | 0 | 30 | –
CCOC(=O)c1c(S(C)(=O)=O)ccc(C(=O)c2cnn(CC)c2OC(=O)SC)c1C [compound 62] | 100 | – | 100 | 100 | 100 | 95 | 80 | 50 | 10 | 90 | 80 | 95 | 95 | 100 | 90 | 90 | 70 | 30 | 0 | 0 | –
CCSC(=O)Oc1c(C(=O)c2ccc(S(C)(=O)=O)c(COC)c2C)cnn1C [compound 63] | 95 | – | 95 | 98 | 100 | 95 | 90 | 10 | 0 | 95 | 95 | 95 | 90 | 90 | 80 | 70 | 80 | 0 | 0 | 0 | –
CCSC(=O)Oc1c(C(=O)c2ccc(S(C)(=O)=O)c(CC(=O)OC)c2C)cnn1C [compound 64] | 80 | 60 | 100 | – | 65 | 85 | 70 | 0 | 0 | – | 90 | 95 | 50 | 80 | 60 | 30 | 70 | 0 | 0 | 0 | –
